Data reported in ChEMBL document CHEMBL5543145, “Discovery of the First-in-Class G9a/GLP PROTAC Degrader” (J Med Chem, 2024).
Activity calls are given as the source filed them. No cut-off for these calls is given here.

How the values were obtained:
[1] = molecular target: Protein arginine N-methyltransferase 6 (Homo sapiens) (UniProt Q96LA8); assay: Inhibition of PRMT6 (unknown origin) at 10 uM relative to control
K562 [2] = assay: Cytotoxicity against human K562 cells assessed as growth inhibition incubated for 7 days; format: functional; conditions: K562, 168 h, time 7 day
[3] = molecular target: T1, von Hippel-Lindau disease tumor suppressor/Histone-lysine N-methyltransferase EHMT2 (Homo sapiens, UniProt Q96KQ7+P40337); assay: PROTAC activity at G9a/VHL in human 22Rv1 cells assessed as induction of G9a degradation at 1 uM pretreated with VHL-1 for 2 hrs followed by compound administration and measured after 24 hrs by Western blot analysis; format: cell-based
Target sequence in this assay (P40337 whole entry partner): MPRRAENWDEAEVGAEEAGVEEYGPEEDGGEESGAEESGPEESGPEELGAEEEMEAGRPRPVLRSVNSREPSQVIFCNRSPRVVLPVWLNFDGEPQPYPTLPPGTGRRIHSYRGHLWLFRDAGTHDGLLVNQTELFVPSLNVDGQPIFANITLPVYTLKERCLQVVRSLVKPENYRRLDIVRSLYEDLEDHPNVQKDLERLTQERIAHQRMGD
Target sequence in this assay (Q96KQ7 2-1210 limits assumed): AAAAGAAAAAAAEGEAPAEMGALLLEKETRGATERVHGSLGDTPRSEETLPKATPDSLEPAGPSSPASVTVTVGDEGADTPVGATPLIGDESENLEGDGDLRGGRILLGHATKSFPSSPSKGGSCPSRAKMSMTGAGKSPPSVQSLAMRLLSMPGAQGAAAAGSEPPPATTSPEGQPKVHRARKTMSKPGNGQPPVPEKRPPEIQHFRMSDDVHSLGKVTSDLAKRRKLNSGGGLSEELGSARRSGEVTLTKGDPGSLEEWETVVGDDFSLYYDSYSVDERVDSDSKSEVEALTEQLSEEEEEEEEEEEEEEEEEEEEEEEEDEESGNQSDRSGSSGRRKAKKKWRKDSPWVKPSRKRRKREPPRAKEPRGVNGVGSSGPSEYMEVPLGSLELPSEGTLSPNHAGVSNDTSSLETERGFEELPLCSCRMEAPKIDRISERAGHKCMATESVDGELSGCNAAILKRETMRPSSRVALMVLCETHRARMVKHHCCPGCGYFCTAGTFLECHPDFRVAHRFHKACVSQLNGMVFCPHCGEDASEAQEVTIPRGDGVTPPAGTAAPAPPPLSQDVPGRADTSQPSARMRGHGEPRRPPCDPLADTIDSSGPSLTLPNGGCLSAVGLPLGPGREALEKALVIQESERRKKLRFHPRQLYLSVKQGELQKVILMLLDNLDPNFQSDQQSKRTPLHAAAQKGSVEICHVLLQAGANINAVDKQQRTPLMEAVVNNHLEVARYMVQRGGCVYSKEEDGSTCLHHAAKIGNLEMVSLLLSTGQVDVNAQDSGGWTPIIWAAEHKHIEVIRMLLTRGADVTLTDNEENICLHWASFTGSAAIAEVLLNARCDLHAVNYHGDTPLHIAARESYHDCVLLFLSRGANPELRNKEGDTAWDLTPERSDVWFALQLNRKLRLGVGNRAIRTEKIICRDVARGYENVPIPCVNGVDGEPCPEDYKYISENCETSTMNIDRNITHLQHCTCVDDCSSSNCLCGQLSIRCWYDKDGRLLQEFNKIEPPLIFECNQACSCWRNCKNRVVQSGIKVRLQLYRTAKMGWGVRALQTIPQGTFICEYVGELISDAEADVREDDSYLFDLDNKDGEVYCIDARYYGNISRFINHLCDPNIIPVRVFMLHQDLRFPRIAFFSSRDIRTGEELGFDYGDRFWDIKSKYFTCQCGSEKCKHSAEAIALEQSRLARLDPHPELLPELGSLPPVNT

[4] = molecular target: Histone-lysine N-methyltransferase SUV39H1 (Homo sapiens) (UniProt O43463); assay: Inhibition of SUV39H1 (unknown origin) at 10 uM relative to control
[5] = molecular target: T1, von Hippel-Lindau disease tumor suppressor/Histone-lysine N-methyltransferase EHMT2; assay: PROTAC activity at G9a/VHL in human 22Rv1 cells assessed as effect on G9a level upto 3 uM measured for 24 hrs by Western blot analysis; format: cell-based
Target sequence in this assay (P40337 whole entry partner): as the sequence (P40337 whole entry partner) above
Target sequence in this assay (Q96KQ7 2-1210 limits assumed): as the sequence (Q96KQ7 2-1210 limits assumed) above

[6] = molecular target: Histone-lysine N-methyltransferase NSD2 (Homo sapiens) (UniProt O96028); assay: Inhibition of NSD2 (unknown origin) at 10 uM relative to control
[7] = molecular target: T2, von Hippel-Lindau disease tumor suppressor/Histone-lysine N-methyltransferase EHMT1 (Homo sapiens, UniProt Q9H9B1+P40337); assay: PROTAC activity at GLP/VHL in human 22Rv1 cells assessed as induction of GLP degradation at 0.3 uM incubated for 24 hrs by Western blot analysis relative to control; format: cell-based
Target sequence in this assay (P40337 whole entry partner): as the sequence (P40337 whole entry partner) above
Target sequence in this assay (Q9H9B1 2-1298 limits assumed): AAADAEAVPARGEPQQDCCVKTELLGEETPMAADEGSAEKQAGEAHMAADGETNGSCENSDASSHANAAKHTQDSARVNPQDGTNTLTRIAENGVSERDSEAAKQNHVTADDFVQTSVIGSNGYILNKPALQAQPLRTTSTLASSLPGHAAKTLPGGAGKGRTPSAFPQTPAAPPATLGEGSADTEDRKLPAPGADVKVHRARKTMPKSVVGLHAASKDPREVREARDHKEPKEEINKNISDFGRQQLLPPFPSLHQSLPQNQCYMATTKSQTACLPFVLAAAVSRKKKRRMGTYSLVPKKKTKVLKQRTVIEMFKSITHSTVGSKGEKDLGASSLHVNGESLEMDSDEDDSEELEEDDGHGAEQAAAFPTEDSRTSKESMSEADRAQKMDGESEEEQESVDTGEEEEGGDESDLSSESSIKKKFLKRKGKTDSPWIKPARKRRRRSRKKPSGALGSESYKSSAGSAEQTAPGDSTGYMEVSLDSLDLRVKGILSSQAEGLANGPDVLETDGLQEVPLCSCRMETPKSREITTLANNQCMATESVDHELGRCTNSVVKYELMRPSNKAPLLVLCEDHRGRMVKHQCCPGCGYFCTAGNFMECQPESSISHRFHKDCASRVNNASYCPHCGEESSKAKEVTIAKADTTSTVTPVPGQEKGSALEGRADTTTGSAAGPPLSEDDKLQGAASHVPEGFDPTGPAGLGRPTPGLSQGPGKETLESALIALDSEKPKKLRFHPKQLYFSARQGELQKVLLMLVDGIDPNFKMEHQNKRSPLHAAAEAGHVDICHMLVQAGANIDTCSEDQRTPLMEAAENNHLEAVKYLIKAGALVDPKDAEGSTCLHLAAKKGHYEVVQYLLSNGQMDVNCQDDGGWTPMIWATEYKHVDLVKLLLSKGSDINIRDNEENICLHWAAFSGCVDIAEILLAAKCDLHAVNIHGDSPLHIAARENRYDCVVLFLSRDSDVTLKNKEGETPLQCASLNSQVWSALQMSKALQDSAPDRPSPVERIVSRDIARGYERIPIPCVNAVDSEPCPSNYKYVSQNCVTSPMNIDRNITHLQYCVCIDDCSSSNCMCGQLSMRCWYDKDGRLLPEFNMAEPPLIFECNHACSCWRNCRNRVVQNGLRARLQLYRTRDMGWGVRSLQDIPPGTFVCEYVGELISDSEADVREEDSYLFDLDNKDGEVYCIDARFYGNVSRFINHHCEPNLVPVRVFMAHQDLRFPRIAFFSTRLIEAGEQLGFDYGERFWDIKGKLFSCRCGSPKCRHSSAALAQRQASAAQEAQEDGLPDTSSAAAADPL

[8] = molecular target: Protein arginine N-methyltransferase 1 (Homo sapiens) (UniProt Q99873); assay: Inhibition of PRMT1 (unknown origin) at 10 uM relative to control
[9] = molecular target: T2, von Hippel-Lindau disease tumor suppressor/Histone-lysine N-methyltransferase EHMT1; assay: PROTAC activity at GLP/VHL in human 22Rv1 cells assessed as effect on GLP level upto 3 uM measured for 24 hrs by Western blot analysis; format: cell-based
Target sequence in this assay (P40337 whole entry partner): as the sequence (P40337 whole entry partner) above
Target sequence in this assay (Q9H9B1 2-1298 limits assumed): as the sequence (Q9H9B1 2-1298 limits assumed) above

[10] = molecular target: T2, von Hippel-Lindau disease tumor suppressor/Histone-lysine N-methyltransferase EHMT1; assay: PROTAC activity at GLP/VHL in human 22Rv1 cells assessed as induction of GLP degradation at 1 uM incubated for 24 hrs by Western blot analysis; format: cell-based
Target sequence in this assay (P40337 whole entry partner): as the sequence (P40337 whole entry partner) above
Target sequence in this assay (Q9H9B1 2-1298 limits assumed): as the sequence (Q9H9B1 2-1298 limits assumed) above

[11] = molecular target: Histone-lysine N-methyltransferase NSD3 (Homo sapiens) (UniProt Q9BZ95); assay: Inhibition of NSD3 (unknown origin) at 10 uM relative to control
[12] = molecular target: T2, von Hippel-Lindau disease tumor suppressor/Histone-lysine N-methyltransferase EHMT1; assay: PROTAC activity at GLP/VHL in human K562 cells assessed as induction of GLP degradation at 3 uM incubated for 24 hrs by Western blot analysis; format: cell-based
Target sequence in this assay (P40337 whole entry partner): as the sequence (P40337 whole entry partner) above
Target sequence in this assay (Q9H9B1 2-1298 limits assumed): as the sequence (Q9H9B1 2-1298 limits assumed) above

[13] = molecular target: Histone-lysine N-methyltransferase 2A (Homo sapiens) (UniProt Q03164); assay: Inhibition of MLL1 (unknown origin) at 10 uM relative to control
[14] = molecular target: Protein arginine N-methyltransferase 3 (Homo sapiens) (UniProt O60678); assay: Inhibition of PRMT3 (unknown origin) at 10 uM relative to control
[15] = molecular target: T2, von Hippel-Lindau disease tumor suppressor/Histone-lysine N-methyltransferase EHMT1; assay: PROTAC activity at GLP/VHL in human 22Rv1 cells assessed as induction of GLP degradation incubated for 24 hrs by Western blot analysis; format: cell-based
CWR22R [16] = assay: Effect on SET7/9 level in human 22Rv1 cells at 3 uM incubated for 24 hrs by Western blot analysis; format: functional, cell-based
CWR22R [17] = assay: Effect on EZH2 level in human 22Rv1 cells at 3 uM incubated for 24 hrs by Western blot analysis; format: functional, cell-based
[18] = molecular target: T1, von Hippel-Lindau disease tumor suppressor/Histone-lysine N-methyltransferase EHMT2; assay: PROTAC activity at G9a/VHL in human 22Rv1 cells assessed as induction of G9a degradation at 3 uM measured at 4 hrs by Western blot analysis; format: cell-based
Target sequence in this assay (P40337 whole entry partner): as the sequence (P40337 whole entry partner) above
Target sequence in this assay (Q96KQ7 2-1210 limits assumed): as the sequence (Q96KQ7 2-1210 limits assumed) above

[19] = molecular target: T1, von Hippel-Lindau disease tumor suppressor/Histone-lysine N-methyltransferase EHMT2; assay: PROTAC activity at G9a/VHL in human 22Rv1 cells assessed as induction of G9a degradation at 3 uM by Western blot analysis; format: cell-based; conditions: time <= 48.0 hrs, TDE = time-dependent effect
Target sequence in this assay (P40337 whole entry partner): as the sequence (P40337 whole entry partner) above
Target sequence in this assay (Q96KQ7 2-1210 limits assumed): as the sequence (Q96KQ7 2-1210 limits assumed) above

[20] = molecular target: Protein arginine N-methyltransferase 7 (Homo sapiens) (UniProt Q9NVM4); assay: Inhibition of PRMT7 (unknown origin) at 10 uM relative to control
[21] = molecular target: Histone-lysine N-methyltransferase SMYD3 (Homo sapiens) (UniProt Q9H7B4); assay: Inhibition of SMYD3 (unknown origin) at 10 uM relative to control
Chain of Histone-lysine N-methyltransferase SMYD3 (Homo sapiens) (Q9H7B4 whole entry): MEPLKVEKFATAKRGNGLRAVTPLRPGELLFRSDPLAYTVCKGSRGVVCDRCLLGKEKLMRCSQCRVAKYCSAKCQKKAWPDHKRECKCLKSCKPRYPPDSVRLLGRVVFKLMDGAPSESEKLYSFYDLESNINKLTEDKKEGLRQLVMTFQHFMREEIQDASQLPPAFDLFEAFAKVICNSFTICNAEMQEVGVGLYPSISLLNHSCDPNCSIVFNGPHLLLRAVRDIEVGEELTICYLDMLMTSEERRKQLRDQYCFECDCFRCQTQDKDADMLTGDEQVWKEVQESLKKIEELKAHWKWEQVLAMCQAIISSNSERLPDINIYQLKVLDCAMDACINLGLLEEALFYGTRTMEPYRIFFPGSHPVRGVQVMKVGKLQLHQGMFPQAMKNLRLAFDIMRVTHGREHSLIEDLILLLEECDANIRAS

K562 [22] = assay: Cytotoxicity against human K562 cells assessed as reduction in cell viability incubated for 8 days; format: functional, cell-based; conditions: K562, 192 h
[23] = molecular target: Histone-lysine N-methyltransferase, H3 lysine-79 specific (Homo sapiens) (UniProt Q8TEK3); assay: Inhibition of DOT1L (unknown origin) at 10 uM relative to control
[24] = molecular target: T2, von Hippel-Lindau disease tumor suppressor/Histone-lysine N-methyltransferase EHMT1; assay: PROTAC activity at GLP/VHL in human 22Rv1 cells assessed as induction of GLP degradation at 1 uM pretreated with VHL-1 for 2 hrs followed by compound administration and measured after 24 hrs by Western blot analysis; format: cell-based
Target sequence in this assay (P40337 whole entry partner): as the sequence (P40337 whole entry partner) above
Target sequence in this assay (Q9H9B1 2-1298 limits assumed): as the sequence (Q9H9B1 2-1298 limits assumed) above

[25] = molecular target: T1, von Hippel-Lindau disease tumor suppressor/Histone-lysine N-methyltransferase EHMT2; assay: PROTAC activity at G9a/VHL in human 22Rv1 cells assessed as induction of G9a degradation incubated for 24 hrs by Western blot analysis; format: cell-based
[26] = Cmax in C57BL6 mouse plasma at 50 mg/kg, ip measured at 8 hrs by LC-MS/MS analysis; format: ADME, organism-based
[27] = molecular target: Protein arginine N-methyltransferase 8 (Homo sapiens) (UniProt Q9NR22); assay: Inhibition of PRMT8 (unknown origin) at 10 uM relative to control
Chain of Protein arginine N-methyltransferase 8 (Homo sapiens) (Q9NR22 2-394 limits assumed): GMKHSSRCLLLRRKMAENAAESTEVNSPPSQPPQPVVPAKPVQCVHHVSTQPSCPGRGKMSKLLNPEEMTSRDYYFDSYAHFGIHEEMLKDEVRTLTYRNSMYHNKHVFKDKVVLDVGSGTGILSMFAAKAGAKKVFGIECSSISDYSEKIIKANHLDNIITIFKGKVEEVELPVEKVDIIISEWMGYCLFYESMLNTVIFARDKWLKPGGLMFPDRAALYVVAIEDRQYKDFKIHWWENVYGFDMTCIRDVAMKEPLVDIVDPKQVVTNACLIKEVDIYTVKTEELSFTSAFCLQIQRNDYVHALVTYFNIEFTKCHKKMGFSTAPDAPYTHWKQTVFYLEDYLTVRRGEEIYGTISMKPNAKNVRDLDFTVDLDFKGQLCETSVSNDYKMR

[28] = molecular target: T2, von Hippel-Lindau disease tumor suppressor/Histone-lysine N-methyltransferase EHMT1; assay: PROTAC activity at GLP/VHL in human 22Rv1 cells assessed as induction of GLP degradation at 3 uM by Western blot analysis; format: cell-based; conditions: time <= 48.0 hrs, TDE = time-dependent effect
Target sequence in this assay (P40337 whole entry partner): as the sequence (P40337 whole entry partner) above
Target sequence in this assay (Q9H9B1 2-1298 limits assumed): as the sequence (Q9H9B1 2-1298 limits assumed) above

[29] = molecular target: T2, von Hippel-Lindau disease tumor suppressor/Histone-lysine N-methyltransferase EHMT1; assay: PROTAC activity at GLP/VHL in human 22Rv1 cells assessed as induction of GLP degradation at 3 uM measured at 4 hrs by Western blot analysis; format: cell-based
[30] = molecular target: T2, von Hippel-Lindau disease tumor suppressor/Histone-lysine N-methyltransferase EHMT1; assay: PROTAC activity at GLP/VHL in human 22Rv1 cells assessed as induction of GLP degradation at 3 uM incubated for 24 hrs by Western blot analysis relative to control; format: cell-based
[31] = Cmax in C57BL6 mouse plasma at 50 mg/kg, ip measured at 0.5 hrs by LC-MS/MS analysis; format: ADME, organism-based
[32] = molecular target: T2, von Hippel-Lindau disease tumor suppressor/Histone-lysine N-methyltransferase EHMT1; assay: PROTAC activity at GLP/VHL in human 22Rv1 cells assessed as induction of GLP degradation at 3 uM measured at 24 to 48 hrs by Western blot analysis; format: cell-based; conditions: time 24-48 hrs
[33] = molecular target: T1, von Hippel-Lindau disease tumor suppressor/Histone-lysine N-methyltransferase EHMT2; assay: PROTAC activity at G9a/VHL in human 22Rv1 cells assessed as effect on G9a level at 3 uM incubated for 24 hrs by RT-qPCR analysis; format: cell-based
Target sequence in this assay (P40337 whole entry partner): as the sequence (P40337 whole entry partner) above
Target sequence in this assay (Q96KQ7 2-1210 limits assumed): as the sequence (Q96KQ7 2-1210 limits assumed) above

[34] = molecular target: T2, von Hippel-Lindau disease tumor suppressor/Histone-lysine N-methyltransferase EHMT1; assay: PROTAC activity at GLP/VHL in human 22Rv1 cells assessed as effect on VHL level at 3 uM incubated for 24 hrs by RT-qPCR analysis; format: cell-based
[35] = molecular target: T1, von Hippel-Lindau disease tumor suppressor/Histone-lysine N-methyltransferase EHMT2; assay: PROTAC activity at G9a/VHL in human NCI-H1299 cells assessed as induction of G9a degradation at 3 uM incubated for 24 hrs by Western blot analysis; format: cell-based
Target sequence in this assay (P40337 whole entry partner): as the sequence (P40337 whole entry partner) above
Target sequence in this assay (Q96KQ7 2-1210 limits assumed): as the sequence (Q96KQ7 2-1210 limits assumed) above

[36] = molecular target: T2, von Hippel-Lindau disease tumor suppressor/Histone-lysine N-methyltransferase EHMT1; assay: PROTAC activity at GLP/VHL in human NCI-H1299 cells assessed as induction of GLP degradation at 3 uM incubated for 24 hrs by Western blot analysis; format: cell-based
PNT2 = assay: Cytotoxicity against human PNT2 cells assessed as growth inhibition measured for 5 days; format: toxicity, cell-based; conditions: pnt2, 120 h, time 5 day

Chain of Protein arginine N-methyltransferase 6 (Homo sapiens) (Q96LA8 whole entry, looked up): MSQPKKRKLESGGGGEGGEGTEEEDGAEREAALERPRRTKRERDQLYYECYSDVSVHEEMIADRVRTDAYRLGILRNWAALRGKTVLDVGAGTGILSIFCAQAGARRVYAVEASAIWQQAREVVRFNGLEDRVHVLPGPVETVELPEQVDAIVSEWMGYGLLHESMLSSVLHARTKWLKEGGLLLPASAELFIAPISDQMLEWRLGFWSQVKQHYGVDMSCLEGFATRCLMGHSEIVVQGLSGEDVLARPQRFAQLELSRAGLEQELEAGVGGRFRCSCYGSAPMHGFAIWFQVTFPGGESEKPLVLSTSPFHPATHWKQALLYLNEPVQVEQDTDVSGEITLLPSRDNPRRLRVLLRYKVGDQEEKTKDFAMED

COc1cc2c(NC3CCN(CCCC(=O)NCCCCCCCCCCCC(=O)N[C@H](C(=O)N4C[C@H](O)C[C@H]4C(=O)NCc4ccc(-c5scnc5C)cc4)C(C)(C)C)CC3)nc(N3CCC(F)(F)CC3)nc2cc1OCCCN1CCCC1
inhibition [1]: > 50% | GI50 (K562 [2]): 2000 nM | Activity [3]: Active | inhibition [4]: > 50% | Activity [5]: Active | inhibition [6]: > 50% | Emax [7]: 49% | inhibition [8]: > 50% | Activity [9]: Active | Activity [10]: Active | inhibition [11]: > 50% | Activity [12]: Active | inhibition [13]: > 50% | inhibition [14]: > 50% | DC50 [15]: 260 nM | Activity (CWR22R [16]): Active | Activity (CWR22R [17]): Active | Activity [18]: Active | Activity [19]: Tde | inhibition [20]: > 50% | inhibition [21]: > 50% | IC50 (K562 [22]): 2000 nM | inhibition [23]: > 50% | Activity [24]: Active | DC50 [25]: 274 nM | Cmax [26]: > 5 µM | inhibition [27]: > 50% | Activity [28]: Tde | Activity [29]: Active | Emax [30]: > 99% | Cmax [31]: 27 µM | Activity [32]: 100% | Activity [33]: Active | Activity [34]: Active | Activity [35]: Active | Activity [36]: Active | Activity (PNT2): Non-Toxic
